Test results taken from PubChem BioAssay (NCI).
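Values below derive from 48-hour exposures of cells grown in 96-well plates, with endpoints linearly interpolated between the two concentrations bracketing the appropriate inhibition level. Definition used: TGI = concentration required for complete inhibition of growth.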

Key:
Assay in all cases: inhibition of tumour cell growth, NCI panel, 48 h
[1] = test system: HOP-62 NSCLC
[2] = test system: MDA-MB-231 breast
[3] = test system: OVCAR-5 ovarian
[4] = test system: UACC-62 melanoma
[5] = test system: SF-539 CNS
[6] = test system: MALME-3M melanoma
[7] = test system: SF-295 CNS
[8] = test system: OVCAR-8 ovarian
[9] = test system: UO-31 renal
[10] = test system: RXF 393 renal

Row | SMILES | TGI [1] [µM] | TGI [2] [µM] | TGI [3] [µM] | TGI [4] [µM] | TGI [5] [µM] | TGI [6] [µM] | TGI [7] [µM] | TGI [8] [µM] | TGI [9] [µM] | TGI [10] [µM]
1 | COc1ccc(C2=C(N)c3ccccc3C2=O)cc1 | > 100 | > 100 | > 100 | > 100 | > 100 | > 100 | > 100 | > 100 | – | –
2 | COc1ccc(/C(Cl)=C(\C=O)c2ccc(Cl)cc2)cc1 | 53.6 | – | > 100 | 32.8 | – | > 100 | 19.1 | 45.6 | 33.1 | 57.3
3 | COc1cccc2c1C(=O)c1c(O)c3c(c(O)c1C2=O)C[C@](O)(C(=O)CO)CC3OC1CC(N)C(OC2CCCCO2)C(C)O1 (stereo partly specified) | 1.7 | – | 2.17 | 1.11 | 1.41 | 0.705 | 0.672 | 14 | 3.63 | 1.87
4 | O=c1oc2ccccc2cc1-c1nc2ccccc2s1 | 17.8 | 27.6 | 65.3 | – | – | 9.2 | – | 20.4 | 17.6 | 24.2
5 | CCCCC[C@@H]1OC(=O)[C@@]2(CC3c4ccccc4C2c2ccccc23)[C@H]1C(=O)OC | > 100 | > 100 | > 100 | > 100 | – | > 100 | > 100 | > 100 | > 100 | > 100
6 | COc1ccc(N2C(=O)CSC2c2cc(OC)c(OC)c(OC)c2)cc1 (stereo unspecified) | – | 78.1 | 73.9 | 20.9 | > 100 | 97.7 | 71.9 | > 100 | 27.1 | –
7 | NCCCN1CCN(CCCNc2ccc3ncn4c5ccccc5c(=O)c2c34)CC1 | > 25 | 3.71 | 19.3 | 6.18 | 7.19 | 6.27 | 15.7 | 19.5 | 22.5 | –
8 | Cc1ccc(NC(=O)NC23CC4CC(CC(F)(C4)C2)C3)cc1 | > 100 | – | > 100 | > 100 | > 100 | > 100 | – | > 100 | > 100 | > 100
9 | CC(=O)Nc1[nH]c(=O)[nH]c(=O)c1N(C(C)=O)C(C)=O | – | – | > 100 | > 100 | > 100 | > 100 | > 100 | > 100 | > 100 | > 100
10 | O=c1[nH]nc(Cc2ccc([N+](=O)[O-])cc2)[nH]1 | > 100 | – | > 100 | > 100 | > 100 | > 100 | > 100 | > 100 | > 100 | > 100
11 | C=C1C(=O)OC2C1CC1OC2C(C)CCC/C(C)=C\CCC1(C)O (stereo unspecified) | > 65.9 | – | 124 | 26.4 | 48.7 | 80.6 | 85.2 | 31.4 | 79.6 | 17.9
12 | O=C(NNc1ccc([N+](=O)[O-])cc1)C1OC(CO)C(O)C1O (stereo unspecified) | > 100 | – | > 100 | > 100 | > 100 | > 100 | > 100 | > 100 | > 100 | > 100
